Assay results reported in ChEMBL document CHEMBL4342498, “Design and Discovery of an Orally Efficacious Spiroindolinone-Based Tankyrase Inhibitor for the Treatment of Colon Cancer” (J Med Chem, 2020).
Converted amounts (≈) assume the structure as drawn.

Biological target: T1, Poly [ADP-ribose] polymerase tankyrase-2 (Homo sapiens, UniProt Q9H2K2)
T1 sequence (Q9H2K2 whole entry): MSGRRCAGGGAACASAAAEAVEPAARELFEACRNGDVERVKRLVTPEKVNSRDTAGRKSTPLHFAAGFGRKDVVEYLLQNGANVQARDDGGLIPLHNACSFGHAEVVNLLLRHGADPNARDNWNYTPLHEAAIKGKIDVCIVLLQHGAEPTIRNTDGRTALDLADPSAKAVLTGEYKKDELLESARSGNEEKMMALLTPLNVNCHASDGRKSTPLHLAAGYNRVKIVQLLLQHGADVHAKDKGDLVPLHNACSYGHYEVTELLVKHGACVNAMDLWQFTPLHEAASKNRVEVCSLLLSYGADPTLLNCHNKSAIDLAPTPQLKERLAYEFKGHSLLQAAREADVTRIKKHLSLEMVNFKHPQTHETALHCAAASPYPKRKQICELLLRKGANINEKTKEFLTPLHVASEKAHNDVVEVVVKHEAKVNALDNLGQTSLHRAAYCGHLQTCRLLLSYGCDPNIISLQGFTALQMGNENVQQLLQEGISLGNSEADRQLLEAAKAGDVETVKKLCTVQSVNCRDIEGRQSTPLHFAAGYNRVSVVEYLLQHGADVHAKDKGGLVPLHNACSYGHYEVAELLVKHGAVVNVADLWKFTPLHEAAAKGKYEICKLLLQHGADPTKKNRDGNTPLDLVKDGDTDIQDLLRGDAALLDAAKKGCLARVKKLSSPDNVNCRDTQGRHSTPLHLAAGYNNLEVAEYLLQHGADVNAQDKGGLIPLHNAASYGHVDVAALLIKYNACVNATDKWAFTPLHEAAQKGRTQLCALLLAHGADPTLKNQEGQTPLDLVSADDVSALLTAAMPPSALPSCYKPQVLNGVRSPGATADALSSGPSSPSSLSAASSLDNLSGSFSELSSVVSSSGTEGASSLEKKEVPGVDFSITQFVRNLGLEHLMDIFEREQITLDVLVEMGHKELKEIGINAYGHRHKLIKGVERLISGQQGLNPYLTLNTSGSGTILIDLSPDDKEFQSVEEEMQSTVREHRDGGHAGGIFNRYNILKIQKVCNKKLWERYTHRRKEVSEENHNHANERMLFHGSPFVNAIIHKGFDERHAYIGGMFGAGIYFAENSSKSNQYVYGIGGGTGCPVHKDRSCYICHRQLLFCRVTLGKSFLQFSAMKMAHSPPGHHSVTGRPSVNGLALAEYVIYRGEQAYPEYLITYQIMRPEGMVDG
Test: Inhibition of recombinant human N-terminal TEV cleavage site-fused/FLAG-poly his-tagged TNKS2 ARC5-SAM-PARP domain (613 to 1166 residues) expressed in Escherichia coli assessed as reduction in auto-PARylation preincubated for 10 mins followed by biotinylated-NAD+ addition and measured after 45 mins by ELISA
Conditions: not given

| SMILES | IC50 [nM] |
| --- | --- |
| CN1CCCc2c1nc(N1CCC3(CC1)C(=O)N(C)c1cc(F)cc(F)c13)[nH]c2=O | 10.7 |
| CN1CCC(Oc2cc(F)c3c(c2)N(C)C(=O)C32CCN(c3nc4c(c(=O)[nH]3)CCCN4C)CC2)CC1 | 21.2 |
| O=C1N(CCO)c2cc(F)cc(F)c2C12CCN(c1nc3c(c(=O)[nH]1)CCCC3)CC2 | 20.6 |
| Cc1cccc2c(=O)[nH]c(N3CCC4(CC3)C(=O)N(CCO)c3cc(F)cc(F)c34)nc12 | 3.4 |
| CN1CCc2c1nc(N1CCC3(CC1)CN(CCO)c1cc(F)cc(F)c13)[nH]c2=O | 73.6 |
| Cn1ccc2c(=O)[nH]c(N3CCC4(CC3)CN(CCO)c3cc(F)cc(F)c34)nc21 | 7 |
| CN1CCc2c1nc(N1CCC3(CC1)C(=O)N(CCO)c1cc(F)cc(F)c13)[nH]c2=O | 27.6 |

Test system: COLO 320DM
Test: Antiproliferative activity against human COLO320DM cells assessed as inhibition of cell growth measured after 4 days by CellTiter-Glo assay
Assay type: functional
Conditions: 96 h

| SMILES | GI50 [nM] |
| --- | --- |
| CN1CCCc2c1nc(N1CCC3(CC1)C(=O)N(C)c1cc(F)cc(F)c13)[nH]c2=O | 220 |
| CN1CCC(Oc2cc(F)c3c(c2)N(C)C(=O)C32CCN(c3nc4c(c(=O)[nH]3)CCCN4C)CC2)CC1 | 660 |
| O=C1N(CCO)c2cc(F)cc(F)c2C12CCN(c1nc3c(c(=O)[nH]1)CCCC3)CC2 | 2270 |
| Cc1cccc2c(=O)[nH]c(N3CCC4(CC3)C(=O)N(CCO)c3cc(F)cc(F)c34)nc12 | 2490 |
| CN1CCc2c1nc(N1CCC3(CC1)CN(CCO)c1cc(F)cc(F)c13)[nH]c2=O | 5010 |
| Cn1ccc2c(=O)[nH]c(N3CCC4(CC3)CN(CCO)c3cc(F)cc(F)c34)nc21 | 3560 |
| CN1CCc2c1nc(N1CCC3(CC1)C(=O)N(CCO)c1cc(F)cc(F)c13)[nH]c2=O | 2370 |

Test system: not listed separately
Test: Stability in mouse liver microsomes assessed as parent compound remaining at 1 uM measured after 60 mins in presence of NADPH by LC-MS/MS analysis
Assay type: ADME, Microsome
Conditions: read-out: Stability

| SMILES | remaining at 1 h, 1 µM [%] |
| --- | --- |
| CN1CCCc2c1nc(N1CCC3(CC1)C(=O)N(C)c1cc(F)cc(F)c13)[nH]c2=O | 0 |
| CN1CCC(Oc2cc(F)c3c(c2)N(C)C(=O)C32CCN(c3nc4c(c(=O)[nH]3)CCCN4C)CC2)CC1 | 60.3 |

Test system: not listed separately
Test: Stability in human liver microsomes assessed as parent compound remaining at 1 uM measured after 60 mins in presence of NADPH by LC-MS/MS analysis
Assay type: ADME, Microsome
Conditions: read-out: Stability

| SMILES | remaining at 1 h, 1 µM [%] |
| --- | --- |
| CN1CCCc2c1nc(N1CCC3(CC1)C(=O)N(C)c1cc(F)cc(F)c13)[nH]c2=O | 0.3 |
| CN1CCC(Oc2cc(F)c3c(c2)N(C)C(=O)C32CCN(c3nc4c(c(=O)[nH]3)CCCN4C)CC2)CC1 | 22.4 |

Test system: MDR1
Test: Efflux ratio of permeability across basolateral to apical side over apical to basolateral side in MDCK2-MDR1 cells
Assay type: ADME, cell-based, Canis lupus familiaris
Conditions: dog, MDCK-MDR1

| SMILES | efflux ratio |
| --- | --- |
| CN1CCCc2c1nc(N1CCC3(CC1)C(=O)N(C)c1cc(F)cc(F)c13)[nH]c2=O | 3.1 |
| CN1CCC(Oc2cc(F)c3c(c2)N(C)C(=O)C32CCN(c3nc4c(c(=O)[nH]3)CCCN4C)CC2)CC1 | 11.7 |

Test system: not listed separately
Test: Efflux ratio of permeability across basolateral to apical side over apical to basolateral side in MDCK2 cells
Assay type: ADME, cell-based, Canis lupus familiaris, MDCK-II
Conditions: dog, mdck

| SMILES | efflux ratio |
| --- | --- |
| CN1CCCc2c1nc(N1CCC3(CC1)C(=O)N(C)c1cc(F)cc(F)c13)[nH]c2=O | 1.1 |
| CN1CCC(Oc2cc(F)c3c(c2)N(C)C(=O)C32CCN(c3nc4c(c(=O)[nH]3)CCCN4C)CC2)CC1 | 4.6 |

Test system: not listed separately
Test: Net efflux ratio of permeability across basolateral to apical side over apical to basolateral side in MDCK2-MDR1 cells to MDCK2 cells
Assay type: ADME, cell-based, Canis lupus familiaris
Conditions: dog, mdck

| SMILES | Ratio |
| --- | --- |
| CN1CCCc2c1nc(N1CCC3(CC1)C(=O)N(C)c1cc(F)cc(F)c13)[nH]c2=O | 2.8 |
| CN1CCC(Oc2cc(F)c3c(c2)N(C)C(=O)C32CCN(c3nc4c(c(=O)[nH]3)CCCN4C)CC2)CC1 | 2.5 |

Biological target: T2, Poly [ADP-ribose] polymerase tankyrase-1 (Homo sapiens, UniProt O95271)
T2 sequence (O95271 whole entry): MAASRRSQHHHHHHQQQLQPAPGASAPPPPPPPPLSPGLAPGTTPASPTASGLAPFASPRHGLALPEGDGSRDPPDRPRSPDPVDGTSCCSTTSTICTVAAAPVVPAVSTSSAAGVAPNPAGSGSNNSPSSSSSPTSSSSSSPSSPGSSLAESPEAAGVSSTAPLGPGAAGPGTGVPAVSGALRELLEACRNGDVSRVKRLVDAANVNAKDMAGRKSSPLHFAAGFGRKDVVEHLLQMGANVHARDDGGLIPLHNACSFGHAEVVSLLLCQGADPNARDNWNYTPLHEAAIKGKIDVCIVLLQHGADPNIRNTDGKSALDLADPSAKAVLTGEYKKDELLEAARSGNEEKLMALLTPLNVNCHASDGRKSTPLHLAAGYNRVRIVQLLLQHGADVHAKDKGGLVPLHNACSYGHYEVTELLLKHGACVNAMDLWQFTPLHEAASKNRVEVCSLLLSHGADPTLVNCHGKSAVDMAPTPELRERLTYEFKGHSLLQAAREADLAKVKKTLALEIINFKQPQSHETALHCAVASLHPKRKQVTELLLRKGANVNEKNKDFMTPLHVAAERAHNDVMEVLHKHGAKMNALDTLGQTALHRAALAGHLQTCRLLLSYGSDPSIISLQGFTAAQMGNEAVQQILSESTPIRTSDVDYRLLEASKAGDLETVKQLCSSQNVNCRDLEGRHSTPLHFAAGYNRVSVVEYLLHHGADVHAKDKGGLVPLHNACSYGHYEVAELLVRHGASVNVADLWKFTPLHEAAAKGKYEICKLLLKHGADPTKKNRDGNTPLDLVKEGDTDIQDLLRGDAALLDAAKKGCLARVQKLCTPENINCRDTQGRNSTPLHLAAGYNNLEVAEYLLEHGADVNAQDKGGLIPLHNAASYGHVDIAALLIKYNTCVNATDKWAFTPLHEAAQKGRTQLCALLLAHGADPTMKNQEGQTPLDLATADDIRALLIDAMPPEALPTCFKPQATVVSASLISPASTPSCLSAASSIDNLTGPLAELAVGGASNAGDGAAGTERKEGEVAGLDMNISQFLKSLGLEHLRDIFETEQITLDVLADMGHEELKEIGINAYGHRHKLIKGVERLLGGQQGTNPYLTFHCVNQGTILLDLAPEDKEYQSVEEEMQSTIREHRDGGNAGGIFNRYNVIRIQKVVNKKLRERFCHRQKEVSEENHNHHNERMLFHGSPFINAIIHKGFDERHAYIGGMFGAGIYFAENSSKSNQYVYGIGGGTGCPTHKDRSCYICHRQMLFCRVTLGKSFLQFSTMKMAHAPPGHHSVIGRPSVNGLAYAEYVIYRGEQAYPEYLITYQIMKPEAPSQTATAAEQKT
Test: not given
Conditions: not given

| SMILES | IC50 [nM] |
| --- | --- |
| CN1CCCc2c1nc(N1CCC3(CC1)C(=O)N(C)c1cc(F)cc(F)c13)[nH]c2=O | 7.9 |
| CN1CCC(Oc2cc(F)c3c(c2)N(C)C(=O)C32CCN(c3nc4c(c(=O)[nH]3)CCCN4C)CC2)CC1 | 6.1 |
| O=C1N(CCO)c2cc(F)cc(F)c2C12CCN(c1nc3c(c(=O)[nH]1)CCCC3)CC2 | 14.9 |
| Cc1cccc2c(=O)[nH]c(N3CCC4(CC3)C(=O)N(CCO)c3cc(F)cc(F)c34)nc12 | 5.3 |
| CN1CCc2c1nc(N1CCC3(CC1)CN(CCO)c1cc(F)cc(F)c13)[nH]c2=O | 53.5 |
| Cn1ccc2c(=O)[nH]c(N3CCC4(CC3)CN(CCO)c3cc(F)cc(F)c34)nc21 | 3.8 |
| CN1CCc2c1nc(N1CCC3(CC1)C(=O)N(CCO)c1cc(F)cc(F)c13)[nH]c2=O | 14.1 |

Biological target: T3, Tankyrase 1/2 (Homo sapiens, UniProt Q9H2K2+O95271)
T3 sequence (Q9H2K2 whole entry): T1 sequence (Q9H2K2 whole entry)
T3 sequence (O95271 whole entry): T2 sequence (O95271 whole entry)
Test: not given
Conditions: hek293

| SMILES | IC50 [nM] |
| --- | --- |
| CN1CCCc2c1nc(N1CCC3(CC1)C(=O)N(C)c1cc(F)cc(F)c13)[nH]c2=O | 3.9 |
| CN1CCC(Oc2cc(F)c3c(c2)N(C)C(=O)C32CCN(c3nc4c(c(=O)[nH]3)CCCN4C)CC2)CC1 | 0.1 |
| O=C1N(CCO)c2cc(F)cc(F)c2C12CCN(c1nc3c(c(=O)[nH]1)CCCC3)CC2 | 2.1 |
| Cc1cccc2c(=O)[nH]c(N3CCC4(CC3)C(=O)N(CCO)c3cc(F)cc(F)c34)nc12 | 0.2 |
| CN1CCc2c1nc(N1CCC3(CC1)CN(CCO)c1cc(F)cc(F)c13)[nH]c2=O | 36.5 |
| Cn1ccc2c(=O)[nH]c(N3CCC4(CC3)CN(CCO)c3cc(F)cc(F)c34)nc21 | 1.1 |
| CN1CCc2c1nc(N1CCC3(CC1)C(=O)N(CCO)c1cc(F)cc(F)c13)[nH]c2=O | 4.4 |

Biological target: T3, Tankyrase 1/2
Test: not given
Conditions: not given

| SMILES | IC50 [nM] |
| --- | --- |
| CN1CCCc2c1nc(N1CCC3(CC1)C(=O)N(C)c1cc(F)cc(F)c13)[nH]c2=O | 14.4 |
| CN1CCC(Oc2cc(F)c3c(c2)N(C)C(=O)C32CCN(c3nc4c(c(=O)[nH]3)CCCN4C)CC2)CC1 | 2.7 |
| O=C1N(CCO)c2cc(F)cc(F)c2C12CCN(c1nc3c(c(=O)[nH]1)CCCC3)CC2 | 71.2 |
| Cc1cccc2c(=O)[nH]c(N3CCC4(CC3)C(=O)N(CCO)c3cc(F)cc(F)c34)nc12 | 4.8 |
| CN1CCc2c1nc(N1CCC3(CC1)CN(CCO)c1cc(F)cc(F)c13)[nH]c2=O | 140.6 |
| Cn1ccc2c(=O)[nH]c(N3CCC4(CC3)CN(CCO)c3cc(F)cc(F)c34)nc21 | 7.1 |
| CN1CCc2c1nc(N1CCC3(CC1)C(=O)N(CCO)c1cc(F)cc(F)c13)[nH]c2=O | 32.9 |

Test system: not listed separately
Test: physchem
Conditions: phosphate buffered saline, pH 7.4

| SMILES | solubility at 1 h, 200 µM [µg/mL] |
| --- | --- |
| CN1CCCc2c1nc(N1CCC3(CC1)C(=O)N(C)c1cc(F)cc(F)c13)[nH]c2=O | 16 (≈ 38.5 µM) |
| CN1CCC(Oc2cc(F)c3c(c2)N(C)C(=O)C32CCN(c3nc4c(c(=O)[nH]3)CCCN4C)CC2)CC1 | 102 (≈ 201 µM) |
